Results from paper PMC8032764 (Scientific Reports, 2021).

Experiments:
Adenosine A2A = system: T1, Adenosine A2A; experiment: Cerep binding; parameters: species or system human; conditions: 10 μM; [3H]CGS 21680; hum. recomb. (HEK-293)
T1 construct: host or cells: HEK-293

Adenosine A3 = system: T2, Adenosine A3; experiment: Cerep binding; parameters: species or system human; conditions: 10 μM; [125I]AB-MECA; hum. recomb. (HEK-293)
T2 construct: host or cells: HEK-293

Adrenergic β2 = system: T3, Adrenergic β2; experiment: Cerep binding; parameters: species or system human; conditions: 10 μM; [3H](-)CGP 12177; hum. recomb. (CHO)
T3 construct: host or cells: CHO

Benzodiazepine (central) = experiment: Cerep binding; conditions: 10 μM; [3H]flunitrazepam; rat cerebral cortex
[1] = system: T4, Benzodiazepine (peripheral); experiment: Cerep binding; conditions: 10 μM; [3H]PK 11195; rat heart
T4 construct: tissue Eurofins Cerep SA; host or cells: rat heart

Dopamine D1 = system: T5, Dopamine D1; experiment: Cerep binding; parameters: species or system human; conditions: 10 μM; [3H]SCH 23390; hum. recomb. (CHO)
T5 construct: host or cells: CHO

GABA (non-selective) = experiment: Cerep binding; conditions: 10 μM; [3H]GABA; rat cerebral cortex
Histamine H2 = system: T6, Histamine H2; experiment: Cerep binding; parameters: species or system human; conditions: 10 μM; [125I]APT; hum. recomb. (CHO)
T6 construct: host or cells: CHO

Purinergic P2X = experiment: Cerep binding; conditions: 10 μM; [3H]α,β-MeATP; rat urinary bladder
Serotonin 5-HT7 = system: T7, Serotonin 5-HT7; experiment: Cerep binding; parameters: species or system human; conditions: 10 μM; [3H]LSD; hum. recomb. (CHO)
T7 construct: purchased Eurofins Cerep

Sigma (non-selective) = experiment: Cerep binding; conditions: 10 μM; [3H]DTG; rat cerebral cortex
Angiotensin AT1 = system: T8, Angiotensin AT1; experiment: Cerep binding; parameters: species or system human; conditions: 10 μM; [125I][Sar1,Ile8]-AT-II; hum. recomb. (HEK-293)
T8 construct: purchased Eurofins Cerep

Endothelin ETB = system: T9, Endothelin ETB; experiment: Cerep binding; parameters: species or system human; conditions: 10 μM; [125I]endothelin-1; hum. recomb. (CHO)
T9 construct: purchased Eurofins Cerep

Chemokine CCR1 = system: T10, Chemokine CCR1; experiment: Cerep binding; parameters: species or system human; conditions: 10 μM; [125I]MIP-1a; hum. recomb. (HEK-293)
T10 construct: purchased Eurofins Cerep

Neurokinin NK2 = system: T11, Neurokinin NK2; experiment: Cerep binding; parameters: species or system human; conditions: 10 μM; [125I]NKA; hum. recomb. (CHO)
T11 construct: purchased Eurofins Cerep

Neuropeptide Y2 = system: T12, Neuropeptide Y2; experiment: Cerep binding; parameters: species or system human; conditions: 10 μM; [125I]peptide YY; hum., KAN-TS cells
T12 construct: purchased Eurofins Cerep

Nociceptin (ORL1) = system: T13, Nociceptin (ORL1); experiment: Cerep binding; parameters: species or system human; conditions: 10 μM; [3H]nociceptin; hum. recomb. (HEK-293)
T13 construct: host or cells: HEK-293

[2] = system: T14, Vasoactive intestinal peptide VPAC1 (VIP1); experiment: Cerep binding; parameters: species or system human; conditions: 10 μM; [125I]VIP; hum. recomb. (CHO)
T14 construct: host or cells: CHO

Vasopressin V1A = system: T15, Vasopressin V1A; experiment: Cerep binding; parameters: species or system human; conditions: 10 μM; [3H]AVP; hum. recomb. (CHO)
T15 construct: host or cells: CHO

SKCa channel = experiment: Cerep binding; conditions: 10 μM; [125I]apamin; rat cerebral cortex
Na+ channel (site 2) = experiment: Cerep binding; conditions: 10 μM; [3H]batrachotoxinin; rat cerebral cortex
Dopamine transporter = system: T16, Dopamine transporter; experiment: Cerep binding; parameters: species or system human; conditions: 10 μM; [3H]BTCP; hum. recomb. (CHO)
T16 construct: host or cells: CHO

Glucocorticoid = system: T17, Glucocorticoid; experiment: Cerep binding; parameters: species or system human; conditions: 10 μM; [3H]dexamethasone; hum., IM-9 cells, cytosol
T17 construct: hum., IM-9 cells,; host or cells: IM-9 cells, cytosol

[3] = Plasma levels, prepulse inhibition; format: in vivo, rat; conditions: approximately 60 min, mean ± SD
Protocol: intensities (72, 76, 80, 84 dB) at total plasma concentrations of 56 ± 20, 169 ± 20, and […]
Compound administered at 1, 3 and 10 mg/kg p.o. to male Sprague-Dawley rats 30 min prior to testing. Bars indicate mean percent prepulse inhibition (% PPI) ± SEM; 10 animals per dose group. Background noise: 68 dB. Startle pulse: 12 0 dB. For full methods refer to:
Nordquist et al. (2008). Effects of aripiprazole/OPC-14597 on motor activity, pharmacological models of psychosis, and brain activity in rats. Neuropharmacology , 54,405-416.
Animals were euthanized at the end of testing and plasma samples were collected approximately 60 min post administration; n = 4 rats per group.
(1 picture or pasted object on this page, not shown here)

GABAA-α5 receptors = experiment: Receptor occupancy estimated from free plasma concentrations, object retrieval; format: in vivo, Macaca fascicularis
Text: Free plasma concentrations were used to estimate receptor occupancy.

healthy subjects = experiment: Safety in healthy volunteers in the PET and EEG studies; format: in vivo, human
[4] = Pharmacokinetics, single intravenous dosing; format: in vivo; conditions: Wistar, rat, plasma, 4.3 mg/kg i.v., 2 male
dogs = experiment: GLP toxicology and safety pharmacology, daily oral administration; format: in vivo, dog

SMILES: Cc1onc(-c2ccc(F)cc2)c1COc1ccc(C(=O)N2CCS(=O)(=O)CC2)cn1 [basmisanil]
- % Inhibition (Adenosine A2A): 9%
- % Inhibition (Adenosine A3): 6%
- % Inhibition (Adrenergic β2): 10%
- % Inhibition (Benzodiazepine (central)): 76%
- % Inhibition [1]: -10%
- % Inhibition (Dopamine D1): 0%
- % Inhibition (GABA (non-selective)): -1%
- % Inhibition (Histamine H2): 8%
- % Inhibition (Purinergic P2X): -7%
- % Inhibition (Serotonin 5-HT7): 13%
- % Inhibition (Sigma (non-selective)): 58%
- % Inhibition (Angiotensin AT1): 2%
- % Inhibition (Endothelin ETB): -2%
- % Inhibition (Chemokine CCR1): -2%
- % Inhibition (Neurokinin NK2): 7%
- % Inhibition (Neuropeptide Y2): 7%
- % Inhibition (Nociceptin (ORL1)): -4%
- % Inhibition [2]: 0%
- % Inhibition (Vasopressin V1A): 13%
- % Inhibition (SKCa channel): 3%
- % Inhibition (Na+ channel (site 2)): 0%
- % Inhibition (Dopamine transporter): 19%
- % Inhibition (Glucocorticoid): -2%
- total plasma concentration ([3]; 1 mg/kg p.o.): 56 ± 20 ng/mL
- total plasma concentration ([3]; 3 mg/kg p.o.): 169 ± 20 ng/mL
- total plasma concentration ([3]; 10 mg/kg p.o.): 729 ± 255 ng/mL
- estimated receptor occupancy (GABAA-α5 receptors; 3 mg/kg p.o.): about 30%
- estimated receptor occupancy (GABAA-α5 receptors; 10 mg/kg p.o.): around 50%
- safety and tolerability (healthy subjects; PET and EEG studies): safe and well tolerated
- adverse events (healthy subjects; any cohort): no severe adverse events
- half-life [4]: 1.2 h
- clearance ([4]; read-out: Total CL): 54 mL/min/kg
- Vd ([4]; read-out: Vss): 2.9 L/kg
- exposures with lack of clinical signs and convulsion symptoms (dogs; GLP toxicology studies in dogs): up to 4590 ng/mL
- convulsions and EEG alterations (dogs; daily oral, supra-therapeutic plasma exposures, up to 39 weeks): no convulsions and no EEG alterations
